Experimental data as given in the NIST ThermoML archive (doi:10.1016/j.fluid.2008.09.004).

Legend:
[1] = xn = mol fraction of the nth substance listed; details: 101 kPa, Liquid, Vibrating tube method
[2] = molar heat capacity at constant pressure; xn = mol fraction of the nth substance listed; details: 101 kPa, Liquid, Small sample (50 mg) DSC

CCCCn1cc[n+](C)c1.COS(=O)(=O)[O-] [1-butyl-3-methylimidazolium methyl sulfate] + CCO
Details | mass density, [1] [kg/m3] | molar heat capacity at constant pressure, [2] [J/K/mol]
293.15 K, x1 = 0.0511 | 860.9 | 128.1
293.15 K, x1 = 0.1025 | 916.2 | 143.3
293.15 K, x1 = 0.199 | – | 171.7
293.15 K, x1 = 0.2016 | 995 | –
293.15 K, x1 = 0.3106 | 1055 | 204.1
293.15 K, x1 = 0.4058 | 1093.4 | 232.2
293.15 K, x1 = 0.5057 | 1124.7 | 262.1
293.15 K, x1 = 0.6005 | 1147.9 | 290.9
293.15 K, x1 = 0.69 | 1166.6 | 318.2
293.15 K, x1 = 0.7834 | 1182.5 | 346.9
293.15 K, x1 = 0.8815 | 1196.6 | 377.1
293.15 K, x1 = 0.9368 | 1203.5 | 394
298.15 K, x1 = 0.0511 | 856.7 | 130
298.15 K, x1 = 0.1025 | 912.2 | 145.1
298.15 K, x1 = 0.199 | – | 173.4
298.15 K, x1 = 0.2016 | 991.2 | –
298.15 K, x1 = 0.3106 | 1051.3 | 205.8
298.15 K, x1 = 0.4058 | 1089.8 | 234
298.15 K, x1 = 0.5057 | 1121.2 | 263.9
298.15 K, x1 = 0.6005 | 1144.5 | 292.8
298.15 K, x1 = 0.69 | 1163.1 | 320.3
298.15 K, x1 = 0.7834 | 1179.1 | 349.1
298.15 K, x1 = 0.8815 | 1193.2 | 379.5
298.15 K, x1 = 0.9368 | 1200.2 | 396.5
303.15 K, x1 = 0.0511 | 852.6 | 131.8
303.15 K, x1 = 0.1025 | 908.2 | 146.7
303.15 K, x1 = 0.199 | – | 174.9
303.15 K, x1 = 0.2016 | 987.4 | –
303.15 K, x1 = 0.3106 | 1047.6 | 207.2
303.15 K, x1 = 0.4058 | 1086.3 | 235.6
303.15 K, x1 = 0.5057 | 1117.7 | 265.6
303.15 K, x1 = 0.6005 | 1141 | 294.7
303.15 K, x1 = 0.69 | 1159.7 | 322.3
303.15 K, x1 = 0.7834 | 1175.7 | 351.2
303.15 K, x1 = 0.8815 | 1189.9 | 381.7
303.15 K, x1 = 0.9368 | 1196.9 | 398.9
308.15 K, x1 = 0.0511 | 848.5 | 133.5
308.15 K, x1 = 0.1025 | 904.3 | 148.3
308.15 K, x1 = 0.199 | – | 176.4
308.15 K, x1 = 0.2016 | 983.6 | –
308.15 K, x1 = 0.3106 | 1043.9 | 208.6
308.15 K, x1 = 0.4058 | 1082.7 | 237.1
308.15 K, x1 = 0.5057 | 1114.2 | 267.3
308.15 K, x1 = 0.6005 | 1137.6 | 296.5
308.15 K, x1 = 0.69 | 1156.3 | 324.2
308.15 K, x1 = 0.7834 | 1172.3 | 353.3
308.15 K, x1 = 0.8815 | 1186.6 | 383.9
308.15 K, x1 = 0.9368 | 1193.6 | 401.2
313.15 K, x1 = 0.0511 | 844.4 | 135
313.15 K, x1 = 0.1025 | 900.2 | 149.7
313.15 K, x1 = 0.199 | – | 177.6
313.15 K, x1 = 0.2016 | 979.8 | –
313.15 K, x1 = 0.3106 | 1040.3 | 209.9
313.15 K, x1 = 0.4058 | 1079.1 | 238.5
313.15 K, x1 = 0.5057 | 1110.7 | 268.9
313.15 K, x1 = 0.6005 | 1134.1 | 298.2
313.15 K, x1 = 0.69 | 1152.9 | 326.1
313.15 K, x1 = 0.7834 | 1169 | 355.3
313.15 K, x1 = 0.8815 | 1183.3 | 386
313.15 K, x1 = 0.9368 | 1190.3 | 403.3
318.15 K, x1 = 0.0511 | 840.1 | 136.6
318.15 K, x1 = 0.1025 | 896.1 | 151
318.15 K, x1 = 0.199 | – | 178.8
318.15 K, x1 = 0.2016 | 975.9 | –
318.15 K, x1 = 0.3106 | 1036.6 | 211.2
318.15 K, x1 = 0.4058 | 1075.5 | 239.8
318.15 K, x1 = 0.5057 | 1107.2 | 270.5
318.15 K, x1 = 0.6005 | 1130.7 | 299.9
318.15 K, x1 = 0.69 | 1149.5 | 327.9
318.15 K, x1 = 0.7834 | 1165.6 | 357.3
318.15 K, x1 = 0.8815 | 1180 | 388
318.15 K, x1 = 0.9368 | 1187 | 405.4

CCCCn1cc[n+](C)c1.F[B-](F)(F)F [1-butyl-3-methylimidazolium tetrafluoroborate] + CCO
Details | mass density, [1] [kg/m3] | molar heat capacity at constant pressure, [2] [J/K/mol]
293.15 K, x1 = 0.0987 | 903 | 150.5
293.15 K, x1 = 0.1923 | 976.5 | 174.4
293.15 K, x1 = 0.3004 | 1037.8 | 197.8
293.15 K, x1 = 0.3885 | 1075.8 | 219.8
293.15 K, x1 = 0.4865 | 1108.8 | 240.1
293.15 K, x1 = 0.573 | 1132.8 | 258.3
293.15 K, x1 = 0.6738 | 1155.4 | 281.8
293.15 K, x1 = 0.7531 | 1170.9 | 300.8
293.15 K, x1 = 0.8821 | 1191.8 | 330.9
298.15 K, x1 = 0.0987 | 898.9 | 150
298.15 K, x1 = 0.1923 | 972.5 | 173.6
298.15 K, x1 = 0.3004 | 1033.9 | 198.8
298.15 K, x1 = 0.3885 | 1071.9 | 219.6
298.15 K, x1 = 0.4865 | 1105 | 241.2
298.15 K, x1 = 0.573 | 1129.1 | 259.7
298.15 K, x1 = 0.6738 | 1151.7 | 283.5
298.15 K, x1 = 0.7531 | 1167.2 | 302.6
298.15 K, x1 = 0.8821 | 1188.2 | 333
303.15 K, x1 = 0.0987 | 894.8 | 149.9
303.15 K, x1 = 0.1923 | 968.5 | 173.5
303.15 K, x1 = 0.3004 | 1030 | 199.7
303.15 K, x1 = 0.3885 | 1068 | 219.9
303.15 K, x1 = 0.4865 | 1101.2 | 242.3
303.15 K, x1 = 0.573 | 1125.3 | 261.1
303.15 K, x1 = 0.6738 | 1148 | 285.2
303.15 K, x1 = 0.7531 | 1163.5 | 304.3
303.15 K, x1 = 0.8821 | 1184.6 | 335.1
308.15 K, x1 = 0.0987 | 890.8 | 150.3
308.15 K, x1 = 0.1923 | 964.6 | 174.2
308.15 K, x1 = 0.3004 | 1026.1 | 200.6
308.15 K, x1 = 0.3885 | 1064.2 | 220.6
308.15 K, x1 = 0.4865 | 1097.4 | 243.4
308.15 K, x1 = 0.573 | 1121.6 | 262.4
308.15 K, x1 = 0.6738 | 1144.4 | 286.9
308.15 K, x1 = 0.7531 | 1159.9 | 306.2
308.15 K, x1 = 0.8821 | 1181 | 337.2
313.15 K, x1 = 0.0987 | 886.6 | 151.1
313.15 K, x1 = 0.1923 | 960.5 | 175.6
313.15 K, x1 = 0.3004 | 1022.2 | 201.4
313.15 K, x1 = 0.3885 | 1060.4 | 221.7
313.15 K, x1 = 0.4865 | 1093.6 | 244.4
313.15 K, x1 = 0.573 | 1117.9 | 263.7
313.15 K, x1 = 0.6738 | 1140.7 | 288.5
313.15 K, x1 = 0.7531 | 1156.3 | 308
313.15 K, x1 = 0.8821 | 1177.4 | 339.3
318.15 K, x1 = 0.0987 | 882.4 | 152.4
318.15 K, x1 = 0.1923 | 956.5 | 177.8
318.15 K, x1 = 0.3004 | 1018.2 | 202.3
318.15 K, x1 = 0.3885 | 1056.5 | 223.3
318.15 K, x1 = 0.4865 | 1089.8 | 245.6
318.15 K, x1 = 0.573 | 1114.2 | 265.1
318.15 K, x1 = 0.6738 | 1137.1 | 290.1
318.15 K, x1 = 0.7531 | 1152.7 | 309.9
318.15 K, x1 = 0.8821 | 1173.8 | 341.4
